According to US9005651B2, “Sustained drug delivery system” (Tohoku University, priority 2009, dated 2015):

What was measured:
[1] = Low molecular weight drug (FA) slow release from PEGDM:TEGDM sheets; type: physicochemical; settings: PEGDM:TEGDM 100:0 to 0:100, capsules in PBS
Protocol: Sheets having changed mixing ratios of PEGDM (Mn 750) and TEGDM (Mw 286.3) were prepared to evaluate their low molecular weight drug slow-releasing capability. The low molecular weight drug used sodium fluorescein (FA, a fluorescent contrast agent clinically used) as a model. PEG sheets were prepared in the 6 patterns of PEGDM:TEGDM=100:0, 95:5, 90:10, 80:20, 50:50, and 0:100; FA was capsulated; and the capsules were immersed in PBS to measure the fluorescence intensity at regular intervals. […] The slow-releasing capability was irrespective of the presence of collagen particles.

[2] = Implantation of capsule on the sclera of rabbit's eye (fluorescence of hydatoid, fundus camera, tissue); type: in vivo; settings: 3 days after implantation
Protocol: A capsule (the collagen particle concentration of its porous PEG sheet: 500 mg/ml) packed with a PEG pellet of FA was implanted on the sclera of the eye of rabbits. One eye of each rabbit was used as a non-implantation control. The conjunctiva was incised 5 mm and the capsule was implanted therethrough into 2 to 15 mm of the corneal limbus. The capsule was fixed by suture. The conjunctiva was finally sutured to terminate the implantation. The hydatoid (100 μl) was collected every other week and the fluorescence intensity thereof was measured using a fluorescence plate reader. Using a fluorescence camera, the fluorochrome in the device implanted on the sclera and the distribution of the pigment slowly released were photographed. […] In FIG. 22, the fluorescences of the cell nucleus (blue fluorescence) and the model drug (green fluorescence) are observed. In FIG. 22, the mark * represents the position in which the PEG capsule was present. […] When the drug passes through RP, the drug is fed to RE. Because RP has a high barrier function, the pigment stops here and is concentrated.

O=C([O-])c1ccccc1-c1c2ccc(=O)cc-2oc2cc([O-])ccc12.[Na+].[Na+] [FA, sodium fluorescein]
FA slow-releasing capability versus PEGDM:TEGDM ratio [1]: increased mixing ratio of TEGDM suppressed the FA slow-releasing capability | tissue fluorescence distribution [2]: strong fluorescence was observed in the sclera (SC) and the subretina (RP)
